Source: patent US20240252496A1, “SELECTIVE HYPOTHALAMUS PERMEABLE HDAC6 INHIBITORS FORTREATMENT OF LEPTIN-RESISTANT OBESITY” (The Children’s Medical Center Corporation, priority 2022, published 2024)
“Also recorded” adds a separate entry of the source.

Columns and labels:
[1] = Brain/plasma ratio, brain and hypothalamus penetrance; type: in vivo; conditions: in words
[2] = system: DIO mice; assay: Chronic treatment of DIO mice (body weight, food intake, leptin, DEXA); type: in vivo; conditions: for body weight effect of chronic treatment: DIO mice, 3 weeks i.p., bavarostat 10, citarinostat 25, ricolinostat 50 mg/kg; for food intake and total body fat mass: high fat diet induced mice, summary
Protocol: DIO mice were treated with ACY775 (10 mg/kg/day, i.p.) for 3 weeks. Daily body weight (g) of DIO mice treated with vehicle (n=17) or ACY775 (n=17) during 3 weeks of treatment was determined. Daily food intake (g) during 3 weeks of vehicle or ACY775 treatment was assessed. 24 hours' food intake per mouse during the first week of vehicle or ACY775 treatment was determined. Serum leptin (ng/ml) levels after 3 weeks of vehicle (n=24) or ACY775 (n=24) treatment was assessed. Lean mass (g), fat mass (g) and fat percentage (%) after 3 weeks of vehicle (n=17) or ACY775 (n=17) treatment measured by Dual-energy X-ray absorptiometry (DEXA) scan. DEXA scans were performed in two different cohorts. Glucose tolerance test (GTT) after 1 week of vehicle (n=33) or ACY775 (n=26) treated DIO mice was assessed. Area of curve (AOC) analysis for GTT was performed. Blood glucose (mg/dl) levels after 1 week of vehicle (n=17) or ACY775 (n=16) were assessed in treated DIO mice. Insulin tolerance test (ITT) was performed after 2 weeks of vehicle (n=31) or ACY775 (n=21) treatment of DIO mice. Serum insulin (ng/ml) levels were measured after 3 weeks of vehicle (n=22) or ACY775 (n=21) in treated DIO mice. A homeostatic model assessment of insulin resistance (HOMA-IR) was analyzed after 3 weeks of vehicle (n=14) or ACY775 (n=13) treated DIO mice.
Food intake was analyzed hourly until 3:00 am. […] DEXA scans were performed in two different cohorts.
DIO mice then were treated with ricolinostat (50 mg/kg, i.p.) for 3 weeks. Daily body weight (g), daily food intake (g), serum leptin (ng/ml) levels after 3 weeks of vehicle (n=8) or ricolinostat (n=8) treatment, lean mass (g); fat mass and fat percentage (%) after 3 weeks of vehicle (n=16) or ricolinostat (n=17) treatment measured by DEXA scan were determined.
Studies were conducted as described above with reference to ACY775.
DIO mice then were treated with bavarostat (10 mg/kg, i.p.) for 3 weeks and daily body weight (g) of DIO mice treated with Veh (n=9) or bavarostat (n=9) measured during the three weeks of treatment period. Daily food intake (g) during 3 weeks of Veh or bavarostat treatment was also measured.
ACY1083 was administered to DIO mice as described in Example 3.

[3] = molecular target: HDAC6 (Mus musculus (Mouse), UniProt Q9Z2V5); assay: HDAC6 inhibition in hypothalamus and other brain regions (Ac-tubulin); parameters: species or system mice; conditions: in vivo
Sequence of HDAC6 (Mus musculus (Mouse), UniProt Q9Z2V5) (Q9Z2V5 whole entry): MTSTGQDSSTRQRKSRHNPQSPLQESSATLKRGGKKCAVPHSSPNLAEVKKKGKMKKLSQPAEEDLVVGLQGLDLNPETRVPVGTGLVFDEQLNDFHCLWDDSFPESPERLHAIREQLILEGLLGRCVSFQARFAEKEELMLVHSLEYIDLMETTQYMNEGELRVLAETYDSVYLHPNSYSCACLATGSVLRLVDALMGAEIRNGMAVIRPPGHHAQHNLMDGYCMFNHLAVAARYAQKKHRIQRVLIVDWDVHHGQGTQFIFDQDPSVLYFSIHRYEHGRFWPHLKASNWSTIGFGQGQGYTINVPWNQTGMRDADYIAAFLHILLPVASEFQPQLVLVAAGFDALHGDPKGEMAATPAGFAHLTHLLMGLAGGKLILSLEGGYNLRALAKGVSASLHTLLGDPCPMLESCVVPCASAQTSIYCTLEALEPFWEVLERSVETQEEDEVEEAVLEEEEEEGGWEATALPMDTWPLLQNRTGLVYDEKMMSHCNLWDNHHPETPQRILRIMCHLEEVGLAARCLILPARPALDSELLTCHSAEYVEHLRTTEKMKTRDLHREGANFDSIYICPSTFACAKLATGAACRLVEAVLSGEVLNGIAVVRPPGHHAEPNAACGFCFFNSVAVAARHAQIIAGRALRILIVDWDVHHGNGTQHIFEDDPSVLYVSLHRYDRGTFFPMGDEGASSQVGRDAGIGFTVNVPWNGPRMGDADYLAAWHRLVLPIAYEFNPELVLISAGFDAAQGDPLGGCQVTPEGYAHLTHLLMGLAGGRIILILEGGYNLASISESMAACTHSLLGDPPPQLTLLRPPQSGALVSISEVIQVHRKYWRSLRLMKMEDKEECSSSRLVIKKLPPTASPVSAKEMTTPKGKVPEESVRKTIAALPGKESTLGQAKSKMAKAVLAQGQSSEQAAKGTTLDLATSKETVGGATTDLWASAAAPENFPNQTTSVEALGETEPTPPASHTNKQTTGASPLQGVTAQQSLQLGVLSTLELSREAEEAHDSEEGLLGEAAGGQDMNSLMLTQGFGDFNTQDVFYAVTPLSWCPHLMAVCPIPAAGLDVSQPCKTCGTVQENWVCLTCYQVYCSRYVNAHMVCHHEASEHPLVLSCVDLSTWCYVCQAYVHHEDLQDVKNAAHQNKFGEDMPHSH

[4] = cited from earlier work; for brain penetrance / BBB permeability: in words
[5] = 5 mg/kg i.p.; cited from earlier work
[6] = molecular target: HDAC6 (Homo sapiens (Human), UniProt Q9UBN7); conditions: cited from earlier work
Sequence of HDAC6 (Homo sapiens (Human), UniProt Q9UBN7) (Q9UBN7 whole entry, species assumed): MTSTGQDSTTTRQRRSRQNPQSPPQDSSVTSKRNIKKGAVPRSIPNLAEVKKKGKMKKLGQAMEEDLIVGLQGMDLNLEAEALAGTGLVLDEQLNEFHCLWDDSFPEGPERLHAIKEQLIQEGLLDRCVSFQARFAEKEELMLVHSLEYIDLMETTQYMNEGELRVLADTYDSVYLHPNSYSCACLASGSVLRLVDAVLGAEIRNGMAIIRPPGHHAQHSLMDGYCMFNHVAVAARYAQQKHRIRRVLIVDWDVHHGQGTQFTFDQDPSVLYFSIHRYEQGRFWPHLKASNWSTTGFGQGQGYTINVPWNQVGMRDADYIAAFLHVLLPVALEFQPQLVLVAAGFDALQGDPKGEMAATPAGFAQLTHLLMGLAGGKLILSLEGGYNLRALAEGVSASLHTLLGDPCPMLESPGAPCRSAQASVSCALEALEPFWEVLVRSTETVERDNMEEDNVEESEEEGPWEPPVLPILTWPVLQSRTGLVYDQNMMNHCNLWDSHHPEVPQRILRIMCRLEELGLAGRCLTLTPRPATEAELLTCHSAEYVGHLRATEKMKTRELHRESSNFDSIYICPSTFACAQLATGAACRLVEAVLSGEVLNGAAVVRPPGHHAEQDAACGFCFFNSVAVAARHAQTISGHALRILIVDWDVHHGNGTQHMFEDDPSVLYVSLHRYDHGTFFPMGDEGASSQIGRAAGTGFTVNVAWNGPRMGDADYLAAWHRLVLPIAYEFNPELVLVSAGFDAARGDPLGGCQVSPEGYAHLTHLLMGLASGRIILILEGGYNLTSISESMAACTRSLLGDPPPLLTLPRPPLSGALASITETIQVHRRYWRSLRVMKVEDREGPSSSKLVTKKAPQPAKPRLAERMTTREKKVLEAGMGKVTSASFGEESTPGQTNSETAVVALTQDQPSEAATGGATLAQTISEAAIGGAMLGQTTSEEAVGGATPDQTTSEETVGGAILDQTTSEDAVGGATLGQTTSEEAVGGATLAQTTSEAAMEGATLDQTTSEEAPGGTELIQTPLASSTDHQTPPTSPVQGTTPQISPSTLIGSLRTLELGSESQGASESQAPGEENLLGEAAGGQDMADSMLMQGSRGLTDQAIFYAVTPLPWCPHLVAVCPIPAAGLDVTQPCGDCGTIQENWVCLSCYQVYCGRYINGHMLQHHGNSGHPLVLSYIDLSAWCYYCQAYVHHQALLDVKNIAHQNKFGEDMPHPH

[7] = system: DIO mice; assay: Chronic treatment of DIO mice (body weight, food intake, leptin, DEXA); type: in vivo; conditions: oral administration
[8] = system: HDAC6 KO mice; assay: 3-week treatment of DIO WT versus HDAC6 KO mice; type: in vivo; conditions: for body weight, HDAC6 KO vs WT DIO mice: 3 weeks i.p., ACY775 10, ACY738 50, Tubastatin A 25 mg/kg/day
[9] = system: HDAC6 in AgRP neurons; assay: DIO mice with HDAC6 deleted in AgRP neurons (HDAC6^Agrp-Δ); type: in vivo; conditions: chronic treatment
Protocol: Design, validation, and stereotaxic injection of AAV viral vector carrying the guide RNAs targeting the mouse HDAC6 genomic locus. Three designed sgRNAs were concatenated and constructed into an AAV vector carrying a cre-enabled mCherry fluorescent marker.
Following the bilateral injection of AAV-sgHDAC6 into the arcuate nucleus of Agrp-ires-cre::LSL-Cas9-GFP (Agrp-Cre^+/−::Cas9^+/−) or control LSL-Cas9-GFP (Cas9^+/−) mice, immunostaining to detect the expression of mCherry and GFP was performed. AAV-sg-HDAC6 injected Agrp-Cre^+/−::Cas9^+/− (HDAC6^Agrp-Δ) and Cas9^+/− (HDAC6^WT) DIO mice (n=7 for each group) were fasted for 24 hours, and injected with ACY775 (10 mg/kg. i.p). Hourly total dark cycle food intake (g) (n=7 for each group) of these mice after ACY775 injection was measured. Body weight of AAV-sg-HDAC6 injected HDAC6^Agrp-Δ (n=11) and HDAC6^WT (n=6) mice were measured during 3 weeks of ACY775 (10 mg/kg/day, i.p.) treatment. Daily average food intake of HDAC6^Agro-Δ (n=11) and HDAC6^WT (n=6) mice was measured during 3 weeks of ACY775 (10 mg/kg/day, i.p.) treatment. 24-hour food intake average of HDAC Agrp- and HDAC6^WT mice during the 3 weeks of ACY775 treatment was assessed. Serum leptin level (ng/ml) of HDAC6^Agrp-Δ and HDAC6^WT mice after 2 weeks of ACY775 treatment (n=13 for HDAC6^WT and n=18 for HDAC6^Agrp-Δ) was measured. Lean mass (g); fat mass; and fat percentage (%) of HDAC Agrp- and HDAC6^WT DIO mice after 3 weeks of ACY775 treatment was measured by DEXA scan. The HDAC6 inhibitor responsive neurons in the dorsomedial hypothalamus (DMH) were assessed. Immunostaining and quantification of c-Fos expression was performed in the DMH of DIO mice following one-time ACY775 treatment (10 mg/kg, i.p.).

[10] = system: diet-induced obese mice; conditions: cited from earlier work
[11] = system: DIO mice; assay: Acute leptin co-treatment in DIO mice (body weight, food intake 15 h); type: in vivo; conditions: leptin 1 mg/kg i.p.
Protocol: DIO mice were pretreated with ACY775 (10 mg/kg/day, i.p.) or vehicle for 3 days, which was followed by co-treatment with ACY775 (or vehicle) and leptin (1 mg/kg, i.p.) (or saline) (n=9 for each group), % change in body weight 15 h after leptin treatment, food intake (g) during the 15 h period after leptin treatment. The results in were reproduced in two independent experiments.
Diet induced obese (DIO) mice were pretreated with ACY775 (10 mg/kg/day, i.p.) or vehicle for 3 days, which was followed by co-treatment with ACY775 (or vehicle) and leptin (1 mg/kg, i.p.) (or saline) (n=9 for each group). Mice were evaluated for % change in body weight 15 h after leptin treatment, and food intake (g) during the 15 h period after leptin treatment.
DIO mice were pretreated with ricolinostat (25 mg/kg/day, i.p.) or vehicle for 3 days, which was followed by co-treatment with ricolinostat (or vehicle) and leptin (1 mg/kg, i.p.) (or saline) (n=32 for each group). Change in body weight 15 h after leptin treatment, and food intake (g) during the 15 h period after leptin treatment were determined. The results were reproduced in two independent experiments.

[12] = system: STAT3^Tyr705 phosphorylation; assay: Leptin-stimulated hypothalamic STAT3 phosphorylation in DIO mice; type: in vivo; conditions: leptin 1 mg/kg i.p.
Protocol: DIO mice were pretreated with ACY775 (10 mg/kg/day, i.p.) or vehicle for 3 days, which was followed by a last injection of ACY775 (or vehicle) in the morning of fourth day. 6 hours later mice were injected with saline or leptin (1 mg/kg, i.p.) and hypothalamus were extracted after 45 minutes following the leptin injection. Representative immunoblots for STAT3^Tyr705 phosphorylation and total STAT3 from the hypothalamus. Quantification of the ratio of p-STAT3^Tyr705 to total-STAT3 signal in the immunoblots. The results were reproduced in three independent experiments. The results were analyzed hourly.
DIO mice were pretreated with ACY775 (10 mg/kg/day, i.p.) or vehicle for 3 days, which was followed by a last injection of ACY775 (or vehicle) in the morning of fourth day. 6 hours later mice were injected with saline or leptin (1 mg/kg, i.p.) and the hypothalamus were extracted after 45 minutes following the leptin injection.
6 hours later mice were injected with saline or leptin (1 mg/kg, i.p.) and hypothalamus were extracted after 45 minutes following the leptin injection. Immunoblots for STAT3^Tyr705 phosphorylation and total STAT3 from the hypothalamus were made to quantify the ratio of p-STAT3^Tyr705 to total-STAT3 signal in the immunoblots. The results were reproduced in two independent experiments.
DIO mice were pretreated with ricolinostat (50 mg/kg/day, i.p.) or vehicle 3 days, which was followed by a last injection of ricolinostat (or vehicle) in the morning of fourth day. 6 hours later mice were injected with saline or leptin (1 mg/kg, i.p.) and the hypothalamus were extracted after 45 minutes following the leptin injection. Immunoblots were performed for STAT3^Tyr705 phosphorylation and total STAT3 from the hypothalamus. The ratio of p-STAT3^Tyr705 to total STAT3 signal in the immunoblots was quantified.

HDAC6 inhibition in the hypothalamus [3]	Molecule	penetrance into the hypothalamus [1]	body weight effect of chronic treatment [2]	food intake and total body fat mass [2]	HDAC6 inhibition in other brain regions (cerebrum, frontal lobe, temporal lobe, brainstem) [3]	brain penetrance / BBB permeability [4]	body weight, HDAC6 KO vs WT DIO mice [8]	also measured
inhibits HDAC6 in the hypothalamus	CC1CCC(C(C)(C2CCC(C)CC2)C2CCC(C(C)C(C)CCCCC(C)C(C)C)CC2)CC1 (centres unmarked) [ACY257]	high penetrance into the arctuate nucleus of the hypothalamus	as effective as ACY775 in reducing body weight; also recorded: Significant weight loss; also recorded: as effective as ACY775 in lowering body weight	significant reduction of food intake and total body fat mass	does not inhibit HDAC6 in other brain regions	limited brain expression		body weight effect of chronic treatment ([2]; listed as ACY 257): greatly reduces body weight; AUC Brain/AUC Plasma Ratio ([4]; in vivo): 0.01; Cmax [5]: 1047 ng/mL; Plasma AUClast [5]: 871 (5 mg/kg i.p.) hr*ng/ml; T1/2 [5]: 8.15 h
	O=C(NO)c1cnc(NC2(c3ccccc3)CCC(F)(F)CC2)nc1 [ACY1083]			significant reduction of food intake and total body fat mass		brain-penetrating		selectivity for HDAC6 than all other classes of HDAC isoforms [6]: 260 fold; body weight over 14 days [7]: significant decrease in body weight; also recorded: Significant weight loss; also recorded: reduced body weight
	CN(Cc1ccc(C(=O)NO)cc1F)CC12CC3CC(CC(C3)C1)C2 [Bavarostat, 4-(((((3r,5r,7r)-adamantan-1-yl)methyl)(methyl)amino)methyl)-3-fluoro-N-hydroxybenzamide]	high penetrance of the hypothalamus	Significant weight loss; also recorded: statistically significantly effective in reducing food intake and body weight	significant reduction of food intake and total body fat mass		high brain penetrance	treatment of wild type mice but not HDAC6 Knockout animals with bavarostat caused weight loss	
not in the hypothalamus	O=C(CCCCCCNC(=O)c1cnc(N(c2ccccc2)c2ccccc2Cl)nc1)NO [Citarinostat]		not effective in reducing body weight		inhibits HDAC6 in other brain regions	good brain penetrance		body weight effect of chronic treatment ([2]; listed as citarinostat): ineffective weight lowering effect; HDAC6 inhibition in the hypothalamus ([3]; listed as citarinostat): does not show HDAC6 inhibition in the AGP neurons in the hypothalamus
	leptin: peptide hormone, product of the obese (ob) gene							body weight, leptin alone [11]: did not significantly alter their bodyweight; also recorded: did not change their bodyweight; food intake, leptin alone [11]: did not significantly change the food intake; hypothalamic STAT3^Tyr705 phosphorylation, leptin in vehicle-treated mice [12]: did not significantly increase STAT3^Tyr705 phosphorylation

Molecule	HDAC6 inhibition in the hypothalamus [3]	penetrance into the hypothalamus [1]	body weight effect of chronic treatment [2]	food intake and total body fat mass [2]	HDAC6 inhibition in other brain regions (cerebrum, frontal lobe, temporal lobe, brainstem) [3]	brain penetrance / BBB permeability [4]	body weight, HDAC6 KO vs WT DIO mice [8]	also measured
CN1CCc2c(c3ccccc3n2Cc2ccc(C(=O)NO)cc2)C1 [Tubastatin A]	nor show HDAC6 inhibition in the hypothalamus	neither of which have high penetrance into the hypothalamus				extremely low	reduced the body weight of the HDAC6 KO mice the same as the wt mice	fat mass and fat %, HDAC6 KO vs WT ([8]; DEXA): significantly lower in both wt and HDAC6 KO groups; lean mass, HDAC6 KO vs WT ([8]; DEXA): not different; blood glucose, serum insulin and leptin levels, HDAC6 KO vs WT ([8]; mouse, in vivo): reduced equally in the wt and HDAC6 KO group; food intake, HDAC6 KO vs WT DIO mice ([8]; mouse, in vivo): reduced similarly; glucose tolerance and insulin sensitivity (GTT, ITT), HDAC6 KO vs WT ([8]; mouse, in vivo): improved glucose tolerance and increased insulin sensitivity in both wt and the HDAC6 KO mice; anti-obesity effects in HDAC6^Agrp-Δ vs HDAC6^WT DIO mice [9]: did not change Tubastatin A's effects on suppressing feeding or body weight; brain/plasma ratio ([4]; in vivo): 0.18; anti-obesity effects reported by Cakir et al. [10]: reduce food intake, fat mass, hepatic steatosis and improve systemic glucose homeostasis; also recorded: attenuated in animals with a defective central leptin-melanocortin circuitry
